What was measured:
[1] = target: T1, GABA-A receptor; anion channel (Rattus norvegicus) (UniProt O09028+P15431+P18506+P18508+P19969+P20236+P23574+P23576+P28471+P28473+P30191+P62813+P63079+P63138+Q91ZM7+Q9ES14); experiment: Inhibition of [3H]-GABA binding to Gamma-aminobutyric acid (GABA-A) receptor of rat brain homogenates at 10e-5 M
[2] = target: GABA-A receptor; anion channel; experiment: Inhibition of [3H]GABA binding to Gamma-aminobutyric acid (GABA-A) receptor of rat brain homogenates
[3] = Half-life period was determined at 20 degree Celsius at UV lambdamax nm of 316 (22000); format: ADME
[4] = Half-life period was determined at 20 degree Celsius at UV lambdamax nm of 319 (22000); format: ADME
[5] = Half-life period was determined at 20 degree Celsius at UV lambdamax nm of 323 (23000); Stable; format: ADME
[6] = target: T1, GABA-A receptor; anion channel (Rattus norvegicus); experiment: Inhibition of [3H]GABA binding to Gamma-aminobutyric acid (GABA-A) receptor isolated from rat brain homogenates at 5*10e-4 M
[7] = Half-life period was determined at 20 degree Celsius at UV lambdamax nm of 266 (16000); Stable; format: ADME
[8] = Half-life period was determined at 20 degree Celsius at UV lambdamax nm of 268 (16000); format: ADME
[9] = target: Gamma-aminobutyric acid receptor subunit gamma-1 (Rattus norvegicus) (UniProt P23574); experiment: Inhibition of [3H]GABA binding to Gamma-aminobutyric acid (GABA-A) receptor of rat brain homogenates at 5*10e-4 M
[10] = Half-life period was determined at 20 degree Celsius at UV lambdamax nm of 310 (16600); format: ADME
[11] = target: Gamma-aminobutyric acid receptor subunit gamma-1 (Rattus norvegicus, UniProt P23574); experiment: Inhibition of [3H]-GABA binding to Gamma-aminobutyric acid (GABA-A) receptor of rat brain homogenates (Unstable)
[12] = Half-life period was determined at 20 degree Centigrade at UV lambdamax nm of 299 (8000); format: ADME
[13] = Half-life period was determined at 20 degree Centigrade at UV lambdamax nm of 313 (12000); format: ADME
[14] = Half-life period was determined at 20 degree Celsius at UV lambdamax nm of 258 (8500); format: ADME
[15] = Half-life period was determined at 20 degree Celsius at UV lambdamax nm of 258 (9800); Stable; format: ADME
[16] = Half-life period was determined at 20 degree Centigrade at UV lambdamax nm of 328 (9000); format: ADME
[17] = Half-life period was determined at 20 degree Celsius at UV lambdamax nm of 321 (6500); format: ADME
[18] = Half-life period was determined at 20 degree Celsius at UV lambdamax nm of 328 (12000); format: ADME
[19] = system: GABA-A receptor; anion channel; experiment: Inhibition of [3H]GABA binding to Gamma-aminobutyric acid (GABA-A) receptor of rat brain homogenates (unstable)
[20] = Half-life period was determined at 20 degree Celsius at UV lambdamax nm of 313 (22000); format: ADME
[21] = Half-life period was determined at 20 degree Celsius at UV lambdamax nm of 314 (24000); stable; format: ADME
[22] = Half-life period was determined at 20 degree Centigrade at UV lambdamax nm of 306 (24000); format: ADME
[23] = Half-life period was determined at 20 degree Celsius at UV lambdamax nm of 254 (15000), 341 (7800); format: ADME
[24] = Half-life period was determined at 20 degree Celsius at UV lambdamax nm of 255 (14000), 339 (7500); format: ADME
[25] = Half-life period was determined at 20 degree Celsius at UV lambdamax nm of 348 (44000); Stable; format: ADME
[26] = Half-life period was determined at 20 degree Celsius at UV lambdamax nm of 313 (23000); Stable; format: ADME
[27] = Half-life period was determined at 20 degree Celsius at UV lambdamax nm of 304(7800); unstable; format: ADME
[28] = Half-life period was determined at 20 degree Celsius at UV lambdamax nm of 345 (23000); Stable; format: ADME
[29] = Half-life period was determined at 20 degree Centigrade at UV lambdamax nm of 328; Unstable; format: ADME
[30] = Half-life period was determined at 20 degree Celsius at UV lambdamax nm of 390 (5900); Stable; format: ADME
[31] = Half-life period was determined at 20 degree Celsius at UV lambdamax nm of 260 (9600), 350 (5000); Stable; format: ADME
[32] = Half-life period was determined at 20 degree Celsius at UV lambdamax nm of 257 (14000), 350 (7900)stable; format: ADME
[33] = Half-life period was determined at 20 degree Celsius at UV lambdamax nm of 256 (16000), 349 (9000); format: ADME
[34] = Half-life period was determined at 20 degree Celsius at UV lambdamax nm of 346 (44000); Stable; format: ADME
[35] = Half-life period was determined at 20 degree Celsius at UV lambdamax nm of 306 (24000); Stable; format: ADME

Sequence of Gamma-aminobutyric acid receptor subunit gamma-1 (Rattus norvegicus) (P23574 whole entry): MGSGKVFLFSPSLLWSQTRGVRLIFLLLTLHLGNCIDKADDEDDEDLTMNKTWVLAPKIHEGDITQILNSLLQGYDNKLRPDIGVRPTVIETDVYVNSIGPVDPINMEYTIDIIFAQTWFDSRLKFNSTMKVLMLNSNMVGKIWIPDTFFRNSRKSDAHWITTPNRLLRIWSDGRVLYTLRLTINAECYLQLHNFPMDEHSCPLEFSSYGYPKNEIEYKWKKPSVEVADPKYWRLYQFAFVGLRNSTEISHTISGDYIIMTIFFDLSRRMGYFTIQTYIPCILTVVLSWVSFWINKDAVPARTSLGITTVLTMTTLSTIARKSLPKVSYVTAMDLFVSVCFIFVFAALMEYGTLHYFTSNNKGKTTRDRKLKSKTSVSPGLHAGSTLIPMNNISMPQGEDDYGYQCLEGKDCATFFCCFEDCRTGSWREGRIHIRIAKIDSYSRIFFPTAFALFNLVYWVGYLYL
Sequence of Gamma-aminobutyric acid receptor subunit gamma-1 (P23574 whole entry): as above

SMILES: Nc1nc(CC(=O)O)cs1
- inhibition [1]: 25%

SMILES: N#[N+]c1nc(CC(=O)[O-])c[nH]1
- IC50 [2]: 70 µM
- half-life [3]: 60 h
- half-life [4]: 11 h
- T1/2 [5]: Stable

SMILES: Nc1nc(CC(N)C(=O)O)c[nH]1 (stereo not given)
- inhibition [6]: < 50%

SMILES: N#[N+]c1ccc(S(=O)(=O)[O-])cc1
- T1/2 [7]: Stable
- half-life [8]: 6 h
- inhibition [9]: < 50%

SMILES: Nc1ncc[nH]1
- inhibition [6]: 0%

SMILES: Nc1nc(CC(=O)O)c[nH]1
- inhibition [1]: 30%

SMILES: N#[N+]c1nccn1CC(=O)[O-]
- half-life [10]: 12 h
- IC50 [11]: Unstable
- half-life [12]: 3 h
- half-life [13]: 0.367 h

SMILES: Nc1nccn1CC(=O)O
- inhibition [6]: 20%

SMILES: N#[N+]c1cccc(C(=O)[O-])c1
- half-life [14]: 1.33 h
- T1/2 [15]: Stable
- inhibition [6]: 30%

SMILES: N#[N+]c1nc(CC(=O)[O-])cs1
- half-life [16]: 0.417 h
- half-life [17]: 43 h
- half-life [18]: 48 h
- IC50 [19]: Unstable

SMILES: N#[N+]C1N=CC[N-]1 (stereo not given)
- IC50 [2]: 500 µM
- half-life [20]: 8 h
- T1/2 [21]: Stable
- half-life [22]: 48 h

SMILES: N#[N+]c1cccc2cccc(S(=O)(=O)[O-])c12
- half-life [23]: 22 h
- IC50 [2]: 10 µM
- half-life [24]: 16 h

SMILES: [N-]=[N+]=C1C=CC(=O)C=C1
- T1/2 [25]: Stable
- T1/2 [26]: Stable
- inhibition [6]: 15%

SMILES: N#[N+]c1cc[n+]([O-])cc1
- T1/2 [27]: Unstable
- T1/2 [28]: Stable
- IC50 [19]: Unstable

SMILES: NCc1ccc[n+]([O-])c1
- inhibition [6]: 20%

SMILES: N#[N+]c1ncc(CC(=O)[O-])s1
- T1/2 [29]: Unstable
- IC50 [19]: Unstable

SMILES: Nc1ncc(CC(=O)O)s1
- inhibition [9]: < 50%

SMILES: [N-]=[N+]=C1C=C(S(=O)(=O)O)C=CC1=O
- T1/2 [30]: Stable
- inhibition [6]: 15%
- T1/2 [31]: Stable

SMILES: N#[N+]c1ccc2cccc(S(=O)(=O)[O-])c2c1
- IC50 [2]: < 10 µM
- T1/2 [32]: Stable
- half-life [33]: 0.75 h

SMILES: [N-]=[N+]=C1C=CC(=O)C(S(=O)(=O)O)=C1
- T1/2 [34]: Stable
- T1/2 [35]: Stable
- inhibition [6]: 15%

SMILES: N#[N+]c1cccc(S(=O)(=O)[O-])c1
- IC50 [2]: 5 µM

From ChEMBL document CHEMBL1123561, “Aryl diazo compounds and diazonium salts as potential irreversible probes of the gamma-aminobutyric acid receptor” (J Med Chem, 1987)
